Data as given in ChEMBL document CHEMBL5365405, “Discovery of potent NAMPT-Targeting PROTACs using FK866 as the warhead” (Bioorg Med Chem Lett, 2023).
The source made the active and inactive calls. The calls are words filed in the database; no cut-off is given here.

Tests used:
A2780 [1] = assay: Antiproliferative activity against human A2780 cells assessed as cell growth inhibition; assay type: functional, cell-based
[2] = biological target: Nicotinamide phosphoribosyltransferase (Homo sapiens, UniProt P43490); assay: Inhibition of NAMPT (unknown origin)
[3] = biological target: von Hippel-Lindau disease tumor suppressor/Nicotinamide phosphoribosyltransferase (Homo sapiens, UniProt P40337+P43490); assay: (§1) PROTAC activity at VHL/NAMPT in human A2780 cells assessed as protein degradation measured after 24 hrs by Western blot analysis; assay type: cell-based
[4] = biological target: T1, von Hippel-Lindau disease tumor suppressor/Nicotinamide phosphoribosyltransferase (Homo sapiens) (UniProt P43490+P40337); assay: as §1; assay type: cell-based
[5] = Cytotoxicity activity against HUVEC cells assessed as cell growth inhibition; assay type: toxicity, cell-based; details: human
A2780 [6] = assay: Induction of apoptosis in human A2780 cells assessed as total apoptotic cells at 40 nM incubated for 48 hrs by flow cytometry analysis (reference value: 9.27 %); assay type: functional
[7] = biological target: T1, von Hippel-Lindau disease tumor suppressor/Nicotinamide phosphoribosyltransferase (Homo sapiens); assay: PROTAC activity at VHL/NAMPT in human A2780 cells assessed as protein degradation at 200 nM preincubated with carfilzomib followed by compound addition and measured after 24 hrs by Western blot analysis; assay type: cell-based
A2780 [8] = assay: Induction of apoptosis in human A2780 cells assessed as total apoptotic cells at 1.6 nM incubated for 48 hrs by flow cytometry analysis (reference value: 9.27 %); assay type: functional
[9] = biological target: T1, von Hippel-Lindau disease tumor suppressor/Nicotinamide phosphoribosyltransferase (Homo sapiens); assay: PROTAC activity at VHL/NAMPT in human A2780 cells assessed as protein degradation at 200 nM preincubated with VHL-Boc followed by compound addition and measured after 24 hrs by Western blot analysis; assay type: cell-based
[10] = biological target: T1, von Hippel-Lindau disease tumor suppressor/Nicotinamide phosphoribosyltransferase (Homo sapiens); assay: PROTAC activity at VHL/NAMPT in human A2780 cells assessed as protein degradation at 200 nM by Western blot analysis; assay type: cell-based; details: TDE = time-dependent effect
[11] = biological target: T1, von Hippel-Lindau disease tumor suppressor/Nicotinamide phosphoribosyltransferase (Homo sapiens); assay: PROTAC activity at VHL/NAMPT in human A2780 cells assessed as protein degradation at 200 nM preincubated with VHL-Ac followed by compound addition and measured after 24 hrs by Western blot analysis; assay type: cell-based
A2780 [12] = assay: Induction of apoptosis in human A2780 cells assessed as total apoptotic cells at 1000 nM incubated for 48 hrs by flow cytometry analysis (reference value: 9.27 %); assay type: functional
[13] = biological target: T1, von Hippel-Lindau disease tumor suppressor/Nicotinamide phosphoribosyltransferase (Homo sapiens); assay: PROTAC activity at VHL/NAMPT in human A2780 cells assessed as protein degradation at 200 nM preincubated with NAMPT inhibitor, FK866 followed by compound addition and measured after 24 hrs by Western blot analysis; assay type: cell-based
[14] = biological target: T1, von Hippel-Lindau disease tumor suppressor/Nicotinamide phosphoribosyltransferase (Homo sapiens); assay: PROTAC activity at VHL/NAMPT in human A2780 cells assessed as protein degradation at 200 nM measured after 24 hrs by Western blot analysis relative to control; assay type: cell-based
[15] = biological target: T1, von Hippel-Lindau disease tumor suppressor/Nicotinamide phosphoribosyltransferase (Homo sapiens); assay: PROTAC activity at VHL/NAMPT in human A2780 cells assessed as protein degradation at 200 nM preincubated with MG132 followed by compound addition and measured after 24 hrs by Western blot analysis; assay type: cell-based
[16] = biological target: T1, von Hippel-Lindau disease tumor suppressor/Nicotinamide phosphoribosyltransferase (Homo sapiens); assay: PROTAC activity at VHL/NAMPT in human A2780 cells assessed as protein degradation at 200 nM preincubated with MLN4924 followed by compound addition and measured after 24 hrs by Western blot analysis; assay type: cell-based

von Hippel-Lindau disease tumor suppressor/Nicotinamide phosphoribosyltransferase, sequence (P43490 whole entry): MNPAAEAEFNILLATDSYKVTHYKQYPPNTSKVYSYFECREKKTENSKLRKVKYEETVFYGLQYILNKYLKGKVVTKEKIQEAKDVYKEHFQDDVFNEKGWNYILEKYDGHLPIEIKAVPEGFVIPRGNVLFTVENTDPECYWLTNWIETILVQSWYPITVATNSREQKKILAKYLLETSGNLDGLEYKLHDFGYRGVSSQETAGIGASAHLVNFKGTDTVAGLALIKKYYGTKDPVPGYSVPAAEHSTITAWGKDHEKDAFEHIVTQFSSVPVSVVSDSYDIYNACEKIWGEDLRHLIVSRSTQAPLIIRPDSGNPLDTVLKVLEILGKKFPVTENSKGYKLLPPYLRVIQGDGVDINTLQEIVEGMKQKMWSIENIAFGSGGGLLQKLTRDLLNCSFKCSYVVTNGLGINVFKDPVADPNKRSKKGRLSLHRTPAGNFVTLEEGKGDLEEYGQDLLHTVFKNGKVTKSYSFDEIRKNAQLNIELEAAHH
von Hippel-Lindau disease tumor suppressor/Nicotinamide phosphoribosyltransferase, sequence (P40337 whole entry): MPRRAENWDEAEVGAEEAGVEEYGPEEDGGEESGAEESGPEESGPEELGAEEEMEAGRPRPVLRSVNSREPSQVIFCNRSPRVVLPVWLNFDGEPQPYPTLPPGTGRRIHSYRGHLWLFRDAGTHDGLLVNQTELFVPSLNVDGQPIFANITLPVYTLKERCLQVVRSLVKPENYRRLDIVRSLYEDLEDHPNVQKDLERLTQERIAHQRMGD
Nicotinamide phosphoribosyltransferase, sequence (P43490 whole entry): as the sequence (P43490 whole entry) above
T1 sequence (P40337 whole entry, looked up): as the sequence (P40337 whole entry) above
T1 sequence (P43490 whole entry, looked up): as the sequence (P43490 whole entry) above

Row | Structure (SMILES) | IC50 (A2780 [1]) [nM] | IC50 [2] [nM] | EC50 [3] [nM] | Activity [4] | IC50 [5] [nM] | other results
1 | Cc1ncsc1-c1ccc([C@H](C)NC(=O)[C@@H]2C[C@@H](O)CN2C(=O)[C@@H](NC(=O)CCCCCNC(=O)c2ccc(C(=O)N3CCC(CCCCNC(=O)/C=C/c4cccnc4)CC3)cc2)C(C)(C)C)cc1 | 2.4 | 5.59 | 293 | Dose-Dependent Effect | 0.45 | 
2 | Cc1ncsc1-c1ccc([C@H](C)NC(=O)[C@@H]2C[C@@H](O)CN2C(=O)[C@@H](NC(=O)CCCCCCCCCCNC(=O)c2ccc(C(=O)N3CCC(CCCCNC(=O)/C=C/c4cccnc4)CC3)cc2)C(C)(C)C)cc1 | 41.1 | 1.47 | 111 |  | 2.23 | 
3 | Cc1ncsc1-c1ccc([C@H](C)NC(=O)[C@@H]2C[C@@H](O)CN2C(=O)[C@@H](NC(=O)CCCCCCCCCNC(=O)c2ccc(C(=O)N3CCC(CCCCNC(=O)/C=C/c4cccnc4)CC3)cc2)C(C)(C)C)cc1 | 69.2 | 7.3 | > 500 |  | 1.51 | 
4 | Cc1ncsc1-c1ccc([C@H](C)NC(=O)[C@@H]2C[C@@H](O)CN2C(=O)[C@@H](NC(=O)CCCCCCNC(=O)c2ccc(C(=O)N3CCC(CCCCNC(=O)/C=C/c4cccnc4)CC3)cc2)C(C)(C)C)cc1 | 5.9 | 1.59 | 56 | Dose-Dependent Effect | 0.07 | 
5 | Cc1ncsc1-c1ccc([C@H](C)NC(=O)[C@@H]2C[C@@H](O)CN2C(=O)[C@@H](NC(=O)CCCCCCCCNC(=O)c2ccc(C(=O)N3CCC(CCCCNC(=O)/C=C/c4cccnc4)CC3)cc2)C(C)(C)C)cc1 | 37.9 | 3.12 | 54.4 | Dose-Dependent Effect | 0.9 | 
6 | Cc1ncsc1-c1ccc([C@H](C)NC(=O)[C@@H]2C[C@@H](O)CN2C(=O)[C@@H](NC(=O)CCCCCCCNC(=O)c2ccc(C(=O)N3CCC(CCCCNC(=O)/C=C/c4cccnc4)CC3)cc2)C(C)(C)C)cc1 | 30.6 | 2.14 | 31.7 | Dose-Dependent Effect | 0.3 | Activity (A2780 [6]): 14.57%; Activity [7]: inactive; Activity (A2780 [8]): 10.15%; Activity [9]: inactive; Activity [10]: Tde; Activity [11]: inactive; Activity (A2780 [12]): 20.81%; Activity [13]: inactive; Activity [14]: 78%; Activity [15]: inactive; Activity [16]: inactive
7 | Cc1ncsc1-c1ccc([C@H](C)NC(=O)[C@@H]2C[C@@H](O)CN2C(=O)[C@@H](NC(=O)CCCCNC(=O)c2ccc(C(=O)N3CCC(CCCCNC(=O)/C=C/c4cccnc4)CC3)cc2)C(C)(C)C)cc1 | 3 | 2.67 | 189 | Dose-Dependent Effect | 0.21 | 
8 | Cc1ncsc1-c1ccc([C@H](C)NC(=O)[C@@H]2C[C@@H](O)CN2C(=O)[C@@H](NC(=O)CCCNC(=O)c2ccc(C(=O)N3CCC(CCCCNC(=O)/C=C/c4cccnc4)CC3)cc2)C(C)(C)C)cc1 | 33.7 | 1.53 |  |  | 1.05 | 
9 | Cc1ncsc1-c1ccc([C@H](C)NC(=O)[C@@H]2C[C@@H](O)CN2C(=O)[C@@H](NC(=O)COCCOCCOCCOCCNC(=O)c2ccc(CN3CCN(S(=O)(=O)c4ccc(NC(=S)NCc5cccnc5)cc4)CC3)cc2)C(C)(C)C)cc1 | < 4 |  |  |  |  | 
10 | O=C(/C=C/c1cccnc1)NCCCCC1CCN(C(=O)c2ccccc2)CC1 [DAPORINAD] | < 3 |  |  |  | < 0.001 | Activity (A2780 [6]): 16.3%; Activity (A2780 [8]): 10.22%; Activity (A2780 [12]): 26.84%
